According to patent US11634447B2 (priority 2012, dated 2023):
Where “and” joins values, the source holds several entries; their conditions need not be identical. Equal entries are not always repeated. Where two headings read alike, the source gives them in different places.

Experiments:
[1] = tested on: bacterial strain LF82 binding to the glycoprotein BSA-(Mannose)3; test: Bacterial Binding Assay (BBA); assay type: cell-based, Escherichia coli; details: read-out: Bacterial Binding Assay IC50, LF82/Luciferase strain binding to BSA-(Man)3 coated plates, luminescence
How it was run: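 Inhibition of LF82/luciferase E. coli adhesion is read as luminescence after washing off unbound cells. Compound and bacteria (10^7 per well) are co-incubated 40-75 min at room temperature on wells coated with 0.5-2 μg/mL BSA-(Man)3, with BSA-only wells as background; IC50 values derived.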

[2] = molecular target: T1, FimH-CRD (Escherichia coli, UniProt P08191); test: Competitive binding assay by fluorescence polarization, assay 2 (compounds prepared by a robotics system, plates frozen and thawed); parameters: species or system E. coli
T1 construct: The first 177 amino acids of the FimH protein are expressed as a fusion protein; thrombin tag (printed as 'fusion protein with thrombin') (cleaved yes); made in house; host or cells: bacteria (pET21b plasmid)
Method: The first 177 amino acids of the FimH protein are expressed as a fusion protein with thrombin in a pET21b plasmid in bacteria. This FimH protein sequence contains the carbohydrate recognition domain (CRD) and shall be termed FimH-CRD. Following bacterial expression of the protein, the FimH-CRD protein is purified to homogeneity and the thrombin tag removed by protease cleavage. A competitive binding assay by fluorescence polarization is performed using 5 nM of the Alexa 647 mannoside probe and 60 nM of the FimH-CRD. The samples are assayed in a low volume 384 well microtiter plate in a final volume of 20 μl. The final assay buffer conditions are the following, 50 mM Tris-Cl, ph 7.0, 100 mM NaCl, 1 mM EDTA, 5 mM β-mercaptoethanol, 0.05% BSA and 2.5% DMSO. Two assays are performed for FimH, termed assay 1 or assay 2. The assay conditions are the same for both assays except the following: assay 1 has compounds prepared by manual dilution in a serial dilution factor with 12-point dose response while assay 2 has compounds prepared by a robotics system also through a serial dilution factor (12 point dose response) and initially prepared in duplicate in 384 well-Corning polypropylene round bottom plates. The assay 2 plates have compound which is then frozen and must be thawed prior to use. Initially the Alexa 647 probe and the FimH-CRD are added to the assay buffer and then 0.5 μl of test compound (assay 1 or 2) between 0.4 nM to 75 μM final concentration are added (12 point titration with 3-fold serial dilution). Control wells for the Alexa 647 probe are prepared with the same conditions except for the addition of the FimH-CRD protein. Plates are then incubated for 5 hrs at room temperature in the dark and under humid conditions to prevent drying. Plates are read using the SpectraMax Paradigm multi-mode plate reader and the appropriate fluorescent polarization detection cartridge (Alexa-647).
Alexa 647 mannoside probe is prepared using the similar procedure reported for FAM mannoside (Han, Z. et. al., 2010, J. Med. Chem., 53, 4779) and is described in the scheme below.
To a blue colored stirred solution of (2S,3S,4S,5S,6R)-2-(4-aminobutoxy)-6-(hydroxymethyl)tetrahydropyran-3,4,5-triol (2.21 mg, 0.009 mmol) and the (2E)-2-[(2E,4E)-5-[3,3-dimethyl-5-sulfonato-1-(3-sulfonatopropyl)indol-1-ium-2-yl]penta-2,4-dienylidene]-3-[6-(2,5-dioxopyrrolidin-1-yl)oxy-6-oxo-hexyl]-3-methyl-1-(3-sulfonatopropyl)indoline-5-sulfonate (Potassium Ion (3)) (4.9 mg, 0.0044 mmol) in DMF (44 μL) is added Et3N (5.4 mg, 7.0 μL, 0.053 mmol) at RT. The solution is stirred at room temperature over night, concentrated, dissolved in water and purified on 12 g C-18 silica gel cartridge on Isolera system using acetonitrile in water (0 to 40%, 10 CV) and followed by lyophilization to afford Alexa 647 mannoside probe (3.3 mg, 34%) as deep blue solid.
The Kd values of the compounds are determined from dose response curves using twelve concentrations per compound in duplicate. Curves are fitted to data points using Fluorescence Polarization competitive displacement analysis, and Kds are interpolated from the resulting curves using GraphPad Prism software, version […] (GraphPad software Inc., San Diego, Calif., USA).

[3] = Assay 2 Kd, 5 nM Alexa 647 mannoside probe, 60 nM FimH-CRD, replicate values in one cell
[4] = read-out: Assay 2 Kd, 5 nM Alexa 647 mannoside probe, 60 nM FimH-CRD, replicate values in one cell

T1 sequence (P08191 22-177): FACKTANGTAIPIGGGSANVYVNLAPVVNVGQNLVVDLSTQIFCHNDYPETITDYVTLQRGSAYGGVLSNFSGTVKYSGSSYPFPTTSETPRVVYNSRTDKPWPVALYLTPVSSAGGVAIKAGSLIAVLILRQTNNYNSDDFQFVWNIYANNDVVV

Compound | IC50 [1] [nM] | Kd [2, 3] | Kd [2, 4] [nM]
OC[C@H]1O[C@H](C#Cc2ccc(C#C[C@H]3O[C@H](CO)[C@@H](O)[C@H](O)[C@@H]3O)cc2)[C@@H](O)[C@@H](O)[C@@H]1O [Compound 53, (2R,3S,4R,5S,6R)-2-(Hydroxymethyl)-6-[2-[4-[2-[(2R,3S,4R,5S,6R)-3,4,5-trihydroxy-6-(hydroxymethyl)tetrahydropyran-2-yl]ethynyl]phenyl]ethynyl]tetrahydropyran-3,4,5-triol] | 55 | < 5 nM | < 5
OC[C@H]1O[C@H](c2csc([C@H]3O[C@H](CO)[C@@H](O)[C@H](O)[C@@H]3O)c2)[C@@H](O)[C@@H](O)[C@@H]1O [Compound 47, ((2R,3S,4R,5S,6R)-2-(Hydroxymethyl)-6-[5-[(2S,3S,4S,5S,6R)-3,4,5-trihydroxy-6-(hydroxymethyl)tetrahydropyran-2-yl]-3-thienyl]tetrahydropyran-3,4,5-triol)] | – | 44 nM and 37 nM and 51 nM and 36 nM | –
OC[C@H]1O[C@H](C#Cc2cccc3c(C#C[C@H]4O[C@H](CO)[C@@H](O)[C@H](O)[C@@H]4O)cccc23)[C@@H](O)[C@@H](O)[C@@H]1O [Compound 60, (2R,3S,4R,5S,6R)-2-(Hydroxymethyl)-6-[2-[5-[2-[(2R,3S,4R,5S,6R)-3,4,5-trihydroxy-6-(hydroxymethyl)tetrahydropyran-2-yl]ethynyl]-1-naphthyl]ethynyl]tetrahydropyran-3,4,5-triol] | 13 | < 5 nM | < 5
OC[C@H]1O[C@H](C#Cc2ccc3ccc(C#C[C@H]4O[C@H](CO)[C@@H](O)[C@H](O)[C@@H]4O)cc3c2)[C@@H](O)[C@@H](O)[C@@H]1O [Compound 58, (2R,3S,4R,5S,6R)-2-(Hydroxymethyl)-6-[2-[7-[2-[(2R,3S,4R,5S,6R)-3,4,5-trihydroxy-6-(hydroxymethyl)tetrahydropyran-2-yl]ethynyl]-2-naphthyl]ethynyl]tetrahydropyran-3,4,5-triol] | 17 | < 5 nM | < 5
O=C(C[C@H]1O[C@H](CO)[C@@H](O)[C@H](O)[C@@H]1O)Nc1cccc(NC(=O)C[C@H]2O[C@H](CO)[C@@H](O)[C@H](O)[C@@H]2O)c1 [Compound 48, (2-[(2R,3S,4R,5S,6R)-3,4,5-Trihydroxy-6-(hydroxymethyl)tetrahydropyran-2-yl]-N-[3-[[2-[(2R,3S,4R,5S,6R)-3,4,5-trihydroxy-6-(hydroxymethyl)tetrahydropyran-2-yl]acetyl]amino]phenyl]acetamide)] | – | 79 nM and 50 nM and 63 nM | –
OC[C@H]1O[C@H](C#Cc2ccc3cc(C#C[C@H]4O[C@H](CO)[C@@H](O)[C@H](O)[C@@H]4O)ccc3c2)[C@@H](O)[C@@H](O)[C@@H]1O [Compound 59, (2R,3S,4R,5S,6R)-2-(Hydroxymethyl)-6-[2-[6-[2-[(2R,3S,4R,5S,6R)-3,4,5-trihydroxy-6-(hydroxymethyl)tetrahydropyran-2-yl]ethynyl]-2-naphthyl]ethynyl]tetrahydropyran-3,4,5-triol] | 8.2 | < 5 nM | < 5
O=C(Nc1cccc([C@H]2O[C@H](CO)[C@@H](O)[C@H](O)[C@@H]2O)c1)Nc1cccc([C@H]2O[C@H](CO)[C@@H](O)[C@H](O)[C@@H]2O)c1 [Compound 51, (1,3-Bis(3-((2R,3S,4R,5S,6R)-3,4,5-trihydroxy-6-(hydroxymethyl)tetrahydro-2H-pyran-2-yl)phenyl)urea)] | 830 | 15 nM and < 5 nM | –
OC[C@H]1O[C@H](C#Cc2cccc(C#C[C@H]3O[C@H](CO)[C@@H](O)[C@H](O)[C@@H]3O)c2)[C@@H](O)[C@@H](O)[C@@H]1O [Compound 57, (2R,3S,4R,5S,6R)-2-(Hydroxymethyl)-6-[2-[3-[2-[(2R,3S,4R,5S,6R)-3,4,5-trihydroxy-6-(hydroxymethyl)tetrahydropyran-2-yl]ethynyl]phenyl]ethynyl]tetrahydropyran-3,4,5-triol] | 27 | < 5 nM | < 5
OC[C@H]1O[C@H](C/C=C/c2ccc(C#C[C@H]3O[C@H](CO)[C@@H](O)[C@H](O)[C@@H]3O)cc2)[C@@H](O)[C@@H](O)[C@@H]1O [Compound 55, (2R,3S,4R,5S,6R)-2-(Hydroxymethyl)-6-[(E)-3-[4-[2-[(2R,3S,4R,5S,6R)-3,4,5-trihydroxy-6-(hydroxymethyl)tetrahydropyran-2-yl]ethynyl]phenyl]allyl]tetrahydropyran-3,4,5-triol] | 210 | < 5 nM and 5 nM | –
OC[C@H]1O[C@H](c2ccc3cc(C#C[C@H]4O[C@H](CO)[C@@H](O)[C@H](O)[C@@H]4O)ccc3c2)[C@@H](O)[C@@H](O)[C@@H]1O [Compound 56, (2R,3S,4R,5S,6R)-2-(Hydroxymethyl)-6-[2-[6-[(2R,3S,4R,5S,6R)-3,4,5-trihydroxy-6-(hydroxymethyl)tetrahydropyran-2-yl]-2-naphthyl]ethynyl]tetrahydropyran-3,4,5-triol] | 20 | < 5 nM | < 5
O=C(C[C@H]1O[C@H](CO)[C@@H](O)[C@H](O)[C@@H]1O)NCc1ccc(CNC(=O)C[C@H]2O[C@H](CO)[C@@H](O)[C@H](O)[C@@H]2O)cc1 [Compound 49, (2-[(2R,3S,4R,5S,6R)-3,4,5-Trihydroxy-6-(hydroxymethyl)tetrahydropyran-2-yl]-N-[[4-[[[2-[(2R,3S,4R,5S,6R)-3,4,5-trihydroxy-6-(hydroxymethyl)tetrahydropyran-2-yl]acetyl]amino]methyl]phenyl]methyl]acetamide)] | – | 149 nM and 87 nM | –
OC[C@H]1O[C@H](c2cccc(C#CC#Cc3cccc([C@H]4O[C@H](CO)[C@@H](O)[C@H](O)[C@@H]4O)c3)c2)[C@@H](O)[C@@H](O)[C@@H]1O [Compound 50, ((2R,3S,4R,5S,6R)-2-(Hydroxymethyl)-6-[3-[4-[3-[(2R,3S,4R,5S,6R)-3,4,5-trihydroxy-6-(hydroxymethyl)tetrahydropyran-2-yl]phenyl]buta-1,3-diynyl]phenyl]tetrahydropyran-3,4,5-triol)] | 950 | 9 nM and < 5 nM (2×) | –
OC[C@H]1O[C@H](C#CC#C[C@H]2O[C@H](CO)[C@@H](O)[C@H](O)[C@@H]2O)[C@@H](O)[C@@H](O)[C@@H]1O [Compound 54, (2R,3S,4R,5S,6R)-2-(hydroxymethyl)-6-[4-[(2R,3S,4R,5S,6R)-3,4,5-trihydroxy-6-(hydroxymethyl)tetrahydropyran-2-yl]buta-1,3-diynyl]tetrahydropyran-3,4,5-triol] | 1150 | 16 nM and 30 nM | –
CC(=O)N[C@@H]1[C@@H](O)[C@H](O)[C@@H](CO)O[C@H]1n1cc([C@H]2O[C@H](CO)[C@@H](O)[C@H](O)[C@@H]2O)nn1 [Compound 45, (N-[(2R,3R,4R,5S,6R)-4,5-Dihydroxy-6-(hydroxymethyl)-2-[4-[(2R,3S,4R,5S,6R)-3,4,5-trihydroxy-6-(hydroxymethyl)tetrahydropyran-2-yl]triazol-1-yl]tetrahydropyran-3-yl]acetamide)] | – | 707 nM and 576 nM and 558 nM and 591 nM | –
OC[C@H]1O[C@H](c2ccc([C@H]3O[C@H](CO)[C@@H](O)[C@H](O)[C@@H]3O)s2)[C@@H](O)[C@@H](O)[C@@H]1O [Compound 46, ((2R,3S,4S,5S,6S)-2-(Hydroxymethyl)-6-[5-[(2S,3S,4S,5S,6R)-3,4,5-trihydroxy-6-(hydroxymethyl)tetrahydropyran-2-yl]-2-thienyl]tetrahydropyran-3,4,5-triol)] | – | 11 nM and 9 nM and 16 nM and 14 nM | –
